Measured values as given in patent publication US20040219100A1, “Composition useful for the treatment of tumors” (priority 2003, published 2004).

Test system: JJ5 Breast Cancer cells
Experiment: Kinetics of binding and retention of radioactivity by the cells
Type: cell-based, human
Source text: Breast cancer cells express up to 100-fold higher levels of EGFR than do normal epithelial tissues. EGFR expression in breast cancer bone metastasis biopsies ranged from 1-1300 fmol/mg membrane protein (approximately 400-1,000,000 receptors/cell) and was associated with high relapse rates and poor long term survival. Normal epithelial cells express <10^4 receptors/cell. For the normal breast cell line HBL-100, 8000 EGFR/cell has been reported. The expression of EGFR in breast cancer cell lines has a reported range of 800 EGFR/cell for MCF-7 cells to 10^6 EGFR/cell for MDA-MB-468 cells. […] Utilizing the Auger electron emitter ^111In was used in the initial experiments to illustrate the utility of the invention using EGF-^111In-labeled transferrin compounds. […] The cell pellet was separated from the supernatant and counted in a g-scintillation counter to determine bound (B) and free (F) radioactivity. Non-specific binding was determined by conducting the assay in 100 nM hEGF. […] Internalized fraction was measured by determining the proportion of radioactivity which could not be displaced from the cell surface by 100 nM hEGF. Cell-associated binding (surface-binding and intracellular accumulation) was expressed as a percentage of medium radioactivity bound per mg of cell study protein.

Substance: EGF-^111In-labeled transferrin compound: human epidermal growth factor (EGF) operatively linked (peptide or PEG linker, biotin-streptavidin) to 111In-radiolabeled human transferrin
- retained by the breast cancer cells (37° C., JJ5 cells): at least 24 hours
- 111In radioactivity lost from the cells in vitro (over a 24 hour period at 37° C.): < 8%
